Common to all, as to type: cell-based
For assay [1], the system named is A549. As to the kind of experiment: Cytotoxicity against human A549 cell line by MTT assay.
Assay [2] relates to HL-60. As to the kind of experiment: Cytotoxicity against human HL60 cell line by MTT assay.
The nature of assay [3]: Cytotoxicity against human KATO3 cell line by MTT assay.

For `CC1(C)[C@@H](O[C@@H]2OC[C@H](O[C@@H]3O[C@H](CO)[C@@H](O)[C@H](O[C@@H]4O[C@H](CO)[C@@H](O)[C@H](O)[C@H]4O)[C@H]3O[C@@H]3OC[C@@H](O)[C@H](O)[C@H]3O)[C@H](O)[C@H]2O[C@@H]2O[C@H](CO)[C@@H](O)[C@H](O)[C@H]2O)CC[C@]2(C)[C@H]3CC[C@]45OC[C@@]6(CC[C@](C)(CO)C[C@H]64)[C@H](O)C[C@@]5(C)[C@]3(C)CC[C@@H]12` [ARDISIANOSIDE F], the IC50 in assay [1] is 36.2 µM; in assay [2], > 100 µM; in assay [3] it was 38.3 µM.
For `C[C@@H]1O[C@@H](O[C@H]2[C@H](O[C@H]3CO[C@@H](O[C@H]4CC[C@]5(C)[C@H]6CC[C@]78OC[C@@]9(CCC(C)(C)C[C@H]97)[C@H](O)C[C@@]8(C)[C@]6(C)CC[C@H]5C4(C)C)[C@H](O)[C@H]3O)O[C@H](CO)[C@@H](O)[C@@H]2O)[C@H](O)[C@H](O)[C@H]1O` [ARDISIANOSIDE C] the same measures were 3.2 µM, 2.7 µM and 1.3 µM.
For `C[C@@H]1O[C@@H](O[C@H]2[C@H](O[C@H]3CO[C@@H](O[C@H]4CC[C@]5(C)[C@H]6CC[C@]78OC[C@@]9(CC[C@](C)(C(=O)O)C[C@H]97)[C@H](O)C[C@@]8(C)[C@]6(C)CC[C@H]5C4(C)C)[C@H](O[C@@H]4O[C@H](CO)[C@@H](O)[C@H](O)[C@H]4O)[C@H]3O)O[C@H](CO)[C@@H](O)[C@@H]2O)[C@H](O)[C@H](O)[C@H]1O` [ARDISIAMAMILLOSIDE F], the IC50 in assay [1], in assay [2] and in assay [3] was > 100 µM each time.

Values taken from ChEMBL document CHEMBL1141370, “Biologically active triterpenoid saponins from Ardisia japonica” (J Nat Prod, 2007).
